From ChEMBL document CHEMBL1909046, “DrugMatrix in vitro pharmacology data”

These compounds were tested against D(1A) dopamine receptor (Homo sapiens, UniProt P21728) (assay: DRUGMATRIX: Dopamine D1 radioligand binding (ligand: [3H] SCH-23390)). Settings: cho; Not Active = under 50% inhibition at 10 µM.
Format: cell membranes, CHO, Membrane

Chain of D(1A) dopamine receptor (P21728 whole entry): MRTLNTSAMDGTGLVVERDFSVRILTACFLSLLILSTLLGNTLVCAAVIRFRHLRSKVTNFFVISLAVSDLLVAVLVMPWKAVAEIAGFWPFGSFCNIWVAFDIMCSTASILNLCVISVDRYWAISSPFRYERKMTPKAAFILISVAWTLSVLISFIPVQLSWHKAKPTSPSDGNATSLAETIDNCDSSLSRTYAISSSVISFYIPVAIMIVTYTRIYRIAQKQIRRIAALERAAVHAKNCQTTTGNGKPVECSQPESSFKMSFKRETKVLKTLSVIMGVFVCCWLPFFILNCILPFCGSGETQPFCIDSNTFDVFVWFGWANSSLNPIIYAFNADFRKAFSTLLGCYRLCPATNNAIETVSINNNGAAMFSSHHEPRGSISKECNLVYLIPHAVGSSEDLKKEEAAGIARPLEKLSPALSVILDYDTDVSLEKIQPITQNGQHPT

Structure (SMILES) | IC50
C#C[C@]1(O)CC[C@H]2[C@@H]3CCC4=CC(=O)CC[C@]4(C)[C@H]3CC[C@@]21C [ETHISTERONE] | Not Active
CC(O)(P(=O)(O)O)P(=O)(O)O [ETIDRONIC ACID] | Not Active
CC(C)(C(=O)O)c1ccc(C(O)CCCN2CCC(C(O)(c3ccccc3)c3ccccc3)CC2)cc1 (stereo not drawn) [FEXOFENADINE] | Not Active
CN1CCN(c2c(F)cc3c(=O)c(C(=O)O)cn(CCF)c3c2F)CC1 [FLEROXACIN] | Not Active
O=c1[nH]c(=O)n([C@H]2C[C@H](O)[C@@H](CO)O2)cc1F [FLOXURIDINE] | Not Active
COC(=O)Nc1nc2cc(C(=O)c3ccc(F)cc3)ccc2[nH]1 [FLUBENDAZOLE] | Not Active
CC(=O)OCC(=O)[C@@]1(O)CC[C@H]2[C@@H]3CCC4=CC(=O)CC[C@]4(C)[C@@]3(F)[C@@H](O)C[C@@]21C [FLUDROCORTISONE ACETATE] | Not Active
CCOC(=O)c1ncn2c1CN(C)C(=O)c1cc(F)ccc1-2 [FLUMAZENIL] | Not Active

Each compound was assayed against Tyrosine-protein kinase Lck (Homo sapiens, UniProt P06239) (assay: DRUGMATRIX: Protein Tyrosine Kinase, LCK enzyme inhibition (substrate: Poly(Glu:Tyr))). Settings: insect cells; Not Active = under 50% inhibition at 10 µM.
Format: cell-based, Insect cells

Chain of Tyrosine-protein kinase Lck (P06239 whole entry): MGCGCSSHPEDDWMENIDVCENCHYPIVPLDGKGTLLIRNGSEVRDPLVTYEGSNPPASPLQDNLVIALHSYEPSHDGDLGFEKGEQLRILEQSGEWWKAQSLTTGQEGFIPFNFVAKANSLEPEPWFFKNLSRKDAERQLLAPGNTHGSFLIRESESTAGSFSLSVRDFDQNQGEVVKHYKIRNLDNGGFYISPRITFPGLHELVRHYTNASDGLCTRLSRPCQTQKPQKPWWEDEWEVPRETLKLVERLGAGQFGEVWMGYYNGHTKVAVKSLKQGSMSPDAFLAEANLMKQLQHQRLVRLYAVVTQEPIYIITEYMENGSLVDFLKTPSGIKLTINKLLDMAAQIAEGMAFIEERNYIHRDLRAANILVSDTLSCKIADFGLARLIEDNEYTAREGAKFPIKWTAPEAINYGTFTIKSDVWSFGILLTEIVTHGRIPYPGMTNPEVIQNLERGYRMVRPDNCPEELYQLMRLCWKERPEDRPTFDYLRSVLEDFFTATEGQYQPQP

Structure (SMILES) | IC50
C#C[C@]1(O)CC[C@H]2[C@@H]3CCC4=CC(=O)CC[C@]4(C)[C@H]3CC[C@@]21C [ETHISTERONE] | Not Active
CC(O)(P(=O)(O)O)P(=O)(O)O [ETIDRONIC ACID] | Not Active
CC(C)(C(=O)O)c1ccc(C(O)CCCN2CCC(C(O)(c3ccccc3)c3ccccc3)CC2)cc1 (stereo not drawn) [FEXOFENADINE] | Not Active
CN1CCN(c2c(F)cc3c(=O)c(C(=O)O)cn(CCF)c3c2F)CC1 [FLEROXACIN] | Not Active
O=c1[nH]c(=O)n([C@H]2C[C@H](O)[C@@H](CO)O2)cc1F [FLOXURIDINE] | Not Active
COC(=O)Nc1nc2cc(C(=O)c3ccc(F)cc3)ccc2[nH]1 [FLUBENDAZOLE] | Not Active
CC(=O)OCC(=O)[C@@]1(O)CC[C@H]2[C@@H]3CCC4=CC(=O)CC[C@]4(C)[C@@]3(F)[C@@H](O)C[C@@]21C [FLUDROCORTISONE ACETATE] | Not Active
CCOC(=O)c1ncn2c1CN(C)C(=O)c1cc(F)ccc1-2 [FLUMAZENIL] | Not Active

Each compound was assayed against Acetylcholinesterase (Homo sapiens, UniProt P22303) (assay: DRUGMATRIX: Acetylcholinesterase enzyme inhibition (substrate: acetylthiocholine)). Settings: hek293; Not Active = under 50% inhibition at 10 µM.
Format: cell-based, HEK293

Chain of Acetylcholinesterase (P22303 whole entry): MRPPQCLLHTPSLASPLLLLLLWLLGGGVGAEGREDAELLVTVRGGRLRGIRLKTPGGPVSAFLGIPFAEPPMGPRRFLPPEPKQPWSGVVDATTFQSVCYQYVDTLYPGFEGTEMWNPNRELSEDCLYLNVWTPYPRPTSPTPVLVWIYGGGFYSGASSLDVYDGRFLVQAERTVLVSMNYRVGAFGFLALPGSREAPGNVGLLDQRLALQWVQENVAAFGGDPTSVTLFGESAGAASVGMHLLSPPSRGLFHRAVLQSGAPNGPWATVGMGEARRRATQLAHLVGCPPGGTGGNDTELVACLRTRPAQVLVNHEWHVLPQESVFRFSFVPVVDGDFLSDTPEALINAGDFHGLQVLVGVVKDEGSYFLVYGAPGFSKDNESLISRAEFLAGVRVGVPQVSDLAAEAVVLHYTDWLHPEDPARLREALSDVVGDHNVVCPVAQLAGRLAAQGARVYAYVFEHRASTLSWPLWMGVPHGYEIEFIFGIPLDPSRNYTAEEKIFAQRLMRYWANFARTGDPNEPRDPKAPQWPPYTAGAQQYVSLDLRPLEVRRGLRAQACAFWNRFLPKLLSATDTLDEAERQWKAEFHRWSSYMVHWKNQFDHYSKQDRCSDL

Structure (SMILES) | IC50
C#C[C@]1(O)CC[C@H]2[C@@H]3CCC4=CC(=O)CC[C@]4(C)[C@H]3CC[C@@]21C [ETHISTERONE] | Not Active
CC(O)(P(=O)(O)O)P(=O)(O)O [ETIDRONIC ACID] | Not Active
CC(C)(C(=O)O)c1ccc(C(O)CCCN2CCC(C(O)(c3ccccc3)c3ccccc3)CC2)cc1 (stereo not drawn) [FEXOFENADINE] | Not Active
CN1CCN(c2c(F)cc3c(=O)c(C(=O)O)cn(CCF)c3c2F)CC1 [FLEROXACIN] | Not Active
O=c1[nH]c(=O)n([C@H]2C[C@H](O)[C@@H](CO)O2)cc1F [FLOXURIDINE] | Not Active
COC(=O)Nc1nc2cc(C(=O)c3ccc(F)cc3)ccc2[nH]1 [FLUBENDAZOLE] | Not Active
CC(=O)OCC(=O)[C@@]1(O)CC[C@H]2[C@@H]3CCC4=CC(=O)CC[C@]4(C)[C@@]3(F)[C@@H](O)C[C@@]21C [FLUDROCORTISONE ACETATE] | Not Active
CCOC(=O)c1ncn2c1CN(C)C(=O)c1cc(F)ccc1-2 [FLUMAZENIL] | Not Active

The compounds below were run against T1, Alpha-2C adrenergic receptor (Homo sapiens, UniProt P18825) (assay: DRUGMATRIX: Adrenergic Alpha-2C radioligand binding (ligand: [3H] MK-912)). Settings: sf9.
T1 sequence (P18825 whole entry): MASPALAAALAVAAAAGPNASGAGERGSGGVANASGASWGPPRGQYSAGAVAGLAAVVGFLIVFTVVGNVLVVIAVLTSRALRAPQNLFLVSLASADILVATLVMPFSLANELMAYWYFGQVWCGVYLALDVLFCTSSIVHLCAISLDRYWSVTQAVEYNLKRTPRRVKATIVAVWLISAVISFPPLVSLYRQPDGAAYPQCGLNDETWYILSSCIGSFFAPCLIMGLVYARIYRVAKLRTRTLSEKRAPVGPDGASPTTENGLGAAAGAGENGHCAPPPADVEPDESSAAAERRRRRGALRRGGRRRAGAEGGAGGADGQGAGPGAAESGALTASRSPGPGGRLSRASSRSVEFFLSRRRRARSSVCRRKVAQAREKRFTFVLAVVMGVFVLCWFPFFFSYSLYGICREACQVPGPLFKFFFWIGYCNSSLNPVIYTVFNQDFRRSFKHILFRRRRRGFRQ
Format: cell membranes, Sf9, Membrane

Structure (SMILES) | IC50
C#C[C@]1(O)CC[C@H]2[C@@H]3CCC4=CC(=O)CC[C@]4(C)[C@H]3CC[C@@]21C [ETHISTERONE] | Not Active
CC(O)(P(=O)(O)O)P(=O)(O)O [ETIDRONIC ACID] | Not Active
CC(C)(C(=O)O)c1ccc(C(O)CCCN2CCC(C(O)(c3ccccc3)c3ccccc3)CC2)cc1 (stereo not drawn) [FEXOFENADINE] | Not Active
CN1CCN(c2c(F)cc3c(=O)c(C(=O)O)cn(CCF)c3c2F)CC1 [FLEROXACIN] | Not Active
O=c1[nH]c(=O)n([C@H]2C[C@H](O)[C@@H](CO)O2)cc1F [FLOXURIDINE] | Not Active
COC(=O)Nc1nc2cc(C(=O)c3ccc(F)cc3)ccc2[nH]1 [FLUBENDAZOLE] | Not Active
CC(=O)OCC(=O)[C@@]1(O)CC[C@H]2[C@@H]3CCC4=CC(=O)CC[C@]4(C)[C@@]3(F)[C@@H](O)C[C@@]21C [FLUDROCORTISONE ACETATE] | Not Active
CCOC(=O)c1ncn2c1CN(C)C(=O)c1cc(F)ccc1-2 [FLUMAZENIL] | Not Active

These compounds were tested against T2, Cathepsin G (Homo sapiens, UniProt P08311). Settings: neutrophil.
T2 sequence (P08311 whole entry): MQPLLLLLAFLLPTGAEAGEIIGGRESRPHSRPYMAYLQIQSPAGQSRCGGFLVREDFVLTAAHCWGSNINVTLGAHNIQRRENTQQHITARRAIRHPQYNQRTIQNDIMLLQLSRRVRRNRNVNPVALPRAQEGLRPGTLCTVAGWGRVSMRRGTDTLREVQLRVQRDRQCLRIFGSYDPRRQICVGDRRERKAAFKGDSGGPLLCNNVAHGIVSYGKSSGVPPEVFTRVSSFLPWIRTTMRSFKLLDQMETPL
Format: tissue-based

Structure (SMILES) | IC50
C#C[C@]1(O)CC[C@H]2[C@@H]3CCC4=CC(=O)CC[C@]4(C)[C@H]3CC[C@@]21C [ETHISTERONE] | Not Active
CC(O)(P(=O)(O)O)P(=O)(O)O [ETIDRONIC ACID] | Not Active
CC(C)(C(=O)O)c1ccc(C(O)CCCN2CCC(C(O)(c3ccccc3)c3ccccc3)CC2)cc1 (stereo not drawn) [FEXOFENADINE] | Not Active
CN1CCN(c2c(F)cc3c(=O)c(C(=O)O)cn(CCF)c3c2F)CC1 [FLEROXACIN] | Not Active
O=c1[nH]c(=O)n([C@H]2C[C@H](O)[C@@H](CO)O2)cc1F [FLOXURIDINE] | Not Active
COC(=O)Nc1nc2cc(C(=O)c3ccc(F)cc3)ccc2[nH]1 [FLUBENDAZOLE] | Not Active
CC(=O)OCC(=O)[C@@]1(O)CC[C@H]2[C@@H]3CCC4=CC(=O)CC[C@]4(C)[C@@]3(F)[C@@H](O)C[C@@]21C [FLUDROCORTISONE ACETATE] | Not Active
CCOC(=O)c1ncn2c1CN(C)C(=O)c1cc(F)ccc1-2 [FLUMAZENIL] | Not Active

Each compound was assayed against T3, Cholecystokinin receptor type A (Homo sapiens, UniProt P32238). Settings: 1321-n1.
T3 sequence (P32238 whole entry): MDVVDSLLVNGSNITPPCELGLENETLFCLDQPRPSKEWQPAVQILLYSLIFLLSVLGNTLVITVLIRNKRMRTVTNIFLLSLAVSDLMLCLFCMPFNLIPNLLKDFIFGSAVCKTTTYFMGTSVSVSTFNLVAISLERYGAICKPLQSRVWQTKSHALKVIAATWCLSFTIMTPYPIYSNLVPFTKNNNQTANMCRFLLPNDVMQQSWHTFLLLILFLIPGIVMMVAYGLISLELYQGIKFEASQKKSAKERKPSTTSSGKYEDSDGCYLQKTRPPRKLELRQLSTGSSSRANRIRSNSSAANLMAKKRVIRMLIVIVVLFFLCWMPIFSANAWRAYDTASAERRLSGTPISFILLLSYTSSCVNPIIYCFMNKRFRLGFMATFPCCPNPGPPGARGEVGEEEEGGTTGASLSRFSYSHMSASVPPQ
Format: cell membranes, Membrane

Structure (SMILES) | IC50
C#C[C@]1(O)CC[C@H]2[C@@H]3CCC4=CC(=O)CC[C@]4(C)[C@H]3CC[C@@]21C [ETHISTERONE] | Not Active
CC(O)(P(=O)(O)O)P(=O)(O)O [ETIDRONIC ACID] | Not Active
CC(C)(C(=O)O)c1ccc(C(O)CCCN2CCC(C(O)(c3ccccc3)c3ccccc3)CC2)cc1 (stereo not drawn) [FEXOFENADINE] | Not Active
CN1CCN(c2c(F)cc3c(=O)c(C(=O)O)cn(CCF)c3c2F)CC1 [FLEROXACIN] | Not Active
O=c1[nH]c(=O)n([C@H]2C[C@H](O)[C@@H](CO)O2)cc1F [FLOXURIDINE] | Not Active
COC(=O)Nc1nc2cc(C(=O)c3ccc(F)cc3)ccc2[nH]1 [FLUBENDAZOLE] | Not Active
CC(=O)OCC(=O)[C@@]1(O)CC[C@H]2[C@@H]3CCC4=CC(=O)CC[C@]4(C)[C@@]3(F)[C@@H](O)C[C@@]21C [FLUDROCORTISONE ACETATE] | Not Active
CCOC(=O)c1ncn2c1CN(C)C(=O)c1cc(F)ccc1-2 [FLUMAZENIL] | Not Active
